Data on eight molecules can be found in patent US9238795B2, “Populations of smooth muscle cells of specific embryonic lineages” (Cambridge Enterprise Limited, priority 2011, dated 2016).

“Also recorded” adds a separate entry of the source.

Holding throughout (format): cell-based, human
In one assay the test system is hESCs. Description: QPCR analysis of mesoderm subtype markers in differentiating hESCs. Conditions: for Expression of the lateral plate marker KDR: in the presence of activin A (10 ng/ml), BMP4 0 to 100 ng/ml. Here is the method: Human embryonic stem cells (hESCs) were cultured in chemically defined medium (CDM) with activin A (10 ng/mL) and FGF2 (20 ng/mL) to maintain pluripotency (Vallier et al, 2005).
An efficient 36 h protocol to differentiate hESCs into early mesoderm was named FlyB (F, FGF2 at 20 ng/ml; Ly, LY294002 at 10 μM and B, BMP4 at 10 ng/ml). Differentiation of paraxial mesoderm can be induced by removal of BMP4 and blockage of the PI3K pathway (1.5 day FLyB+3.5 days FLy, where F is FGF2 at 5-25 ng/ml and Ly is LY294002 at 5-10 μM). Differentiation of lateral plate mesoderm can be induced by increasing the levels of BMP4 and removal of Ly (1.5 day FLyB+3.5 days FB, where F is FGF2 at 5-25 ng/ml and B is BMP4 at […]).
(§1) Total RNA was extracted with RNeasy Mini kit according to the manufacturer's instructions (QIAGEN). One microgram of RNA was reverse-transcribed with Fermentas Maxima First Strand cDNA Synthesis Kit. Quantitative polymerase chain reaction (QPCR) mixtures were prepared as described (Applied Biosystems SYBR Green PCR Master Mix). QPCR reactions were performed by Applied Biosystems 7500 Fast Real-Time PCR System with technical duplicates and normalized to Porphobilinogen Deaminase (PBGD) in the same run. Error bars on all QPCR graphs represent standard error of mean from three independent biological replicates.
The protocol used is shown schematically in FIG. 1A, depicting the growth factors used and the duration of the treatment. For the first 36 hours, growth factors used were FLyB10 [FGF2 (20 ng/mL), BMP4 (10 ng/mL) and LY294002 (10 μM)] to induce primitive streak). The subsequent 3.5 days of differentiation specifies mesoderm subtypes. FLy [FGF2 (20 ng/mL) and LY294002 (10 μM)] for somitic mesoderm; FB50 [FGF2 (20 ng/mL) and BMP4 (50 ng/mL)] for lateral mesoderm.
QPCR analysis was performed for Brachyury, MEOX1 and FLK1 in hESCs grown according to the protocol depicted in FIG. 1A and harvested at day 5. The BMP4 gradient tested ranged from 0 ng/mL (Nog) to 100 ng/mL (B100). The bars in FIG. 2 represent the absence or presence of activin A (A) added at 10 ng/ml respectively. […] Therefore, absence of activin A promoted mesoderm formation.
We then evaluated the effect of 10 μM LY294002 (Ly) on mesoderm subtype specification. QPCR analysis of LMO2, CD31, PECAM1, NKX2.5, ISL1, MEOX1, TBX6, TCF15 and PAX1 was performed in hESCs grown for 36 h in FLyB10 and then for 3.5 additional days in F or FB50, with (RH bars) or without (LH bars) […]. […] On the other hand, the presence of Ly promoted the expressions of somitic markers—MEOX1 and TBX6. […] Again, the presence of 50 ng/ml BMP4 (B50) inhibited the expression of all paraxial markers and promoted the expression of lateral plate markers.

For assay [1], the system named is NE-SMCs. Description: Cell cycle analysis. Conditions: after 24 h, compared to vehicle control. An excerpt: (§2) To confirm that we had generated origin-specific SMC subtypes, we used cytokines known to induce unique responses in aortic SMCs of distinct origins. Angiotensin II (Ang II) promotes medial hyperplasia in the ascending aorta (neuroectoderm derivative) but not the descending aorta (mesoderm derivative), TGF-β1 also encourages greater cell proliferation in SMCs of neuroectoderm origin compared to those of mesodermal origin. […] Cell cycle analysis confirmed that Ang II, TGF-β1 or serum each increased the proportion of NE-SMCs in S and G2-M phases compared to vehicle control after 24 h (FIGS. 25A and 25B).

In a further assay the test system is NE-SMC. The experiment in a line: Proliferation response by MTT assay. Conditions: over 3 d; Ang II 1 μM, TGF-β1 5 ng/ml, serum 10%.
From the text: as §2
In general terms: Formazan colour is commonly taken as a measure of viable cells.

The subject of another assay is PM-SMC. The experiment in a line: Proliferation response by MTT assay. Conditions: over 3 d; Ang II 1 μM, TGF-β1 5 ng/ml, serum 10%.
From the text: as §2

A further assay deals with LM-SMC. Description: Proliferation response by MTT assay. Conditions: over 3 d; Ang II 1 μM, TGF-β1 5 ng/ml, serum 10%.
From the text: as §2

Assay [2] has as its system NE-SMCs. The experiment in a line: Auto-induction of TGF-β2 and PDGFA (qRT-PCR, western blot). The protocol: as §1
To obtain protein extracts, cells were washed twice with ice-cold PBS. Ice-cold RIPA buffer was then added to the cells. Cells were scraped off the culture dishes and transferred into a centrifuge tube. Suspension was agitated by an orbital shaker for 15 minutes to lyse the cells at 4° C. Lysate was centrifuged at 14,000 g in a precooled centrifuge for 15 minutes and the supernatant was kept frozen at −80. Protein concentrations were determined using Thermo Scientific BCA Protein Assay Kit. 20 μg total protein was separated by SDS-PAGE and on stacking gel (30% acrylamide, 1M Tris, 10% SDS, 10% APS, TEMED) then transferred to a nitrocellulose membrane. […]
A general note: Real-time PCR tracks product formation cycle by cycle.

For assay [3], the system named is derived SMCs. Description: Contraction study. Conditions: for Percentage of all derived SMCs that contracted: upon carbachol or angiotensin II treatment. The protocol:
(§3) On culture dishes, SMCs were loaded with the calcium-sensitive fluorophore, Fluo-4 AM (2.5 μM; Molecular Probes). Cells were typsinised into single-cell suspension for calcium flux measurement using the CyAn ADP flow cytometer (Packman Coulter). Contraction was induced by treating the cells with carbachol (100 μM). Fluo-4 was excited by the 488 nm laser and the fluorescence emission was measured by the FL1 channel. Cells were analysed just before addition of carbachol, 1 minute and 3 minutes after addition. On the other hand, contraction images of adherent SMCs were acquired by an inverted microscope (Olympus) before and after 10 minutes of carbachol treatment.
Over 50% and 20% of all derived SMCs contracted upon carbachol and angiotensin II treatments, respectively.

The subject of assay [4] is derived SMCs. The experiment in a line: Calcium flux measurement with Fluo-4. Conditions: carbachol 100 μM. The protocol: as §3
Changes of calcium signalling in cells are indicative of their contractile properties in response to carbachol, a potent vasoconstrictor. The origin-specific SMCs were loaded with fluo-4, a calcium-sensitive dye, prior to the addition of carbachol (FIG. 13) and fluorescent emission from the fluo-4 measured over time (T) after the addition of carbachol to the origin-specific SMCs. Hela cells were used as negative control.
To assess SMC contractile potential, we initially performed immunostaining for vinculin and phalloidin staining for actin filaments, Well-developed focal adhesion complexes were detected in all three SMC subtypes. The cells were then preloaded with a calcium-sensitive dye, Fluo-4. Carbachol (100 μM) stimulated an increase in Fluo-4 fluorescence intensity in the derived SMCs within 1 min of treatment (FIG. 14), indicating increased intracellular calcium flux. After 2 min of treatment, Fluo-4 intensity decreased, approaching original basal levels by 5 min.
On the technique in general: Calcium assays in cells follow changes in intracellular calcium, usually with a dye or a luminescent sensor.

Assay [5] has as its system hPSC-derived SMCs and rat aortic SMCs. The experiment in a line: MMP and TIMP expression after IL-1β treatment (qRT-PCR). Conditions: IL-1β 10 ng/ml. The protocol: as §1
Only NE-SMCs proliferated in response to TGF-β1 (FIGS. 24, 25). TGF-β1 may have enhanced cell proliferation by autocrine production of TGF-β2 and PDGFA. We investigated whether TGF-β1 stimulated greater auto-induction of TGF-β2 and PDGFA in SMCs of a neuroectoderm origin. […] Correspondingly, elevated TGFB2 and PDGFA protein levels were found in NE-SMC lysates after TGF-β1 treatment (FIG. 22). Taken together, the data on requirement for MKL2 and their unique proliferative and secretory responses validate the hypothesis that our different SMC subtypes are analogous to the distinct lineage-dependent SMC populations documented in vivo. […]

Where [6] appears, read: 50 ng/ml BMP4 (B50), 36 h FLyB10 then 3.5 days.

As to `O=c1cc(N2CCOCC2)oc2c(-c3ccccc3)cccc12` [LY294002, 2-morpholin-4-yl-8-phenylchromen-4-one, reference compound], the “Expression of lateral plate markers LMO2, PECAM1, NKX2-5, ISL1” value in the assay on hESCs (10 μM LY294002 in F or FB50, compared to no LY294002) was “had no effect or inhibited; also recorded: significantly downregulated”. In the assay on hESCs (10 μM LY294002 in the presence of 20 ng/ml FGF2 (F) alone, versus no LY294002), the “Expression of paraxial markers MEOX1, TBX6, TCF15, PAX1” value was “promote paraxial mesoderm patterning; also recorded: significantly promoted”.
With “TGF-β1: homodimeric polypeptide which regulates proliferation and differentiation”, the “Proportion of cells in S and G2-M phases” value in the assay on NE-SMCs [1] was “increased”. Besides, the Proliferation result with NE-SMC is on record as “proliferated”; in the assay on PM-SMC, “did not”; in the assay with LM-SMC, “did not”. Moreover, the “TGFB2 and PDGFA expression” value with NE-SMCs [2] (10 h of TGF-β1 (5 ng/ml), compared with vehicle control, only in NE-SMCs) was “significantly upregulated”. Further, the “TGFB2 and PDGFA protein levels in lysates” value in the assay with NE-SMCs [2] (after TGF-β1 treatment, western blot) is on record as “elevated”.
For the molecule `C[N+](C)(C)CCOC(N)=O` [carbachol], in the assay with derived SMCs [3] (10 min of carbachol treatment, n=20), the “Change of cell surface area in contracting cells” value is recorded as 10-20%. In the assay on derived SMCs [3], the “Percentage of all derived SMCs that contracted” value is on record as “Over 50%”. The “Fluo-4 fluorescence intensity (intracellular calcium flux)” value with derived SMCs [4] was “transient increase”; with derived SMCs [4] (listed as Carbachol) it was “increase”. The “Time to increase in Fluo-4 fluorescence intensity” value with derived SMCs [4] is recorded as ≤ 1 min.
Take “angiotensin II: vasoconstrictor; promotes medial hyperplasia in the ascending aorta (DRVYIHPF; Angiotensin-2; UniProt P01019 25-32, looked up) [reference compound]”: the “Proportion of cells in S and G2-M phases” value in the assay with NE-SMCs [1] is “increased”. For the same molecule, in the assay with derived SMCs [3], the “Percentage of all derived SMCs that contracted” value was > 20%. For the same molecule, the Proliferation entry in the assay with NE-SMC was “proliferated”; in the assay on PM-SMC, “did not”; in the assay on LM-SMC, “did not”.
IL-1β: an atherogenic cytokine: the “Induction of Mmp9 relative to control in rat SMCs versus hPSC-derived SMCs” value in [5] (6 h) is listed as ~100 fold. In addition, the “MMP9 and TIMP1 expression levels” value in assay [5] (SMC subtypes and rat SMCs of distinct origins) was “differentially activated”.

B1: Noggin: a BMP antagonist (protein, UniProt Q13253 28-232, looked up)
Noggin: QHYLHIRPAPSDNLPLVDLIEHPDPIFDPKEKDLNETLLRSLLGGHYDPGFMATSPPEDRPGGGGGAAGGAEDLAELDQLLRQRPSGAMPSEIKGLEFSEGLAQGKKQRLSKKLRRKLQMWLWSQTFCPVLYAWNDLGSRFWPRYVKVGSCFSKRSCSVPEGMVCKPSKSVHLTVLRWRCQRRGGQRCGWIPIQYPIISECKCSC
In the case of B1, the “Expression of the lateral plate marker KDR” value with hESCs (day 5) is “same effect as B0”.

B2: BMP4: Bone Morphogenic Protein 4, TGFβ ligand stimulating SMAD1, SMAD5 and SMAD9 signalling (protein, UniProt P12644 293-408, looked up)
Bone morphogenetic protein 4: SPKHHSQRARKKNKNCRRHSLYVDFSDVGWNDWIVAPPGYQAFYCHGDCPFPLADHLNSTNHAIVQTLVNSVNSSIPKACCVPTELSAISMLYLDEYDKVVLKNYQEMVVEGCGCR
For the molecule B2, in the assay on hESCs (setting [6]), the “Expression of all paraxial markers” value is listed as “inhibited” and the “Expression of lateral plate markers” value was “promoted”. Also, in the assay on hESCs (hESCs harvested at day 5, BMP4 0 to 100 ng/mL), the “Expression of FLK1” value was “increased”. The “Expression of the lateral plate marker KDR” value in the assay with hESCs (day 5) was “promote the expression”.

B3: activin A: dimeric polypeptide stimulating the Activin/Nodal pathway (protein, UniProt P08476 311-426, looked up)
Inhibin beta A chain: GLECDGKVNICCKKQFFVSFKDIGWNDWIIAPSGYHANYCEGECPSHIAGTSGSSLSFHSTVINHYRMRGHSPFANLKSCCVPTKLRPMSMLYYDDGQNIIKKDIQNMIVEECGCS
modifications: Inhibin beta A chain
In the case of B3, the “Expression of Brachyury (T), MEOX1 and FLK1” value in the assay with hESCs (absence versus presence of activin A at 10 ng/ml, day 5) is “upregulated”. In the assay with hESCs (hESCs harvested at day 5), the “Requirement for mesoderm patterning” value is recorded as “not required”.
